Activity calls are given as the source filed them. The rule behind the calls is not given here.
What was measured:
[1] = molecular target: Histone deacetylase (HDAC1 and HDAC2) (Homo sapiens, UniProt Q13547+Q92769); assay: Inhibition of HDAC1/HDAC2 in human HeLa cell nuclear extract using Boc-Lys(Ac)-AMC as substrate and measured by fluorometric method; assay type: cell-based
Calf thymus DNA [2] = assay: Binding affinity to calf thymus DNA at 50 uM incubated for 30 mins and measured by fluorescence spectroscopy; assay type: nucleic-acid assay; settings: Bos taurus
Calf thymus DNA [3] = assay: Binding affinity to calf thymus DNA at 50 uM incubated for 30 mins and measured by UV-vis absorption spectroscopy; assay type: nucleic-acid assay; settings: Bos taurus
K562 = assay: Antiproliferative activity against human K562 cells after 48 hrs by CCK-8 assay; assay type: functional, cell-based; settings: K562, 48 h
HeLa = assay: Antiproliferative activity against human HeLa cells after 48 hrs by CCK-8 assay; assay type: functional, cell-based
HCT-116 [4] = assay: Antiproliferative activity against human HCT-116 cells after 48 hrs by CCK-8 assay; assay type: functional, cell-based; settings: HCT-116, 48 h
Histone deacetylase 8 = molecular target: T1, Histone deacetylase 8 (Homo sapiens, UniProt Q9BY41); assay: Inhibition of HDAC8 in human HeLa cell nuclear extract using Boc-Lys(Ac)-AMC or Boc-Lys(triflouroacetyl)-AMC as substrate incubated for 30 mins and measured by fluorescence assay; assay type: cell-free
T1 sequence (Q9BY41 whole entry): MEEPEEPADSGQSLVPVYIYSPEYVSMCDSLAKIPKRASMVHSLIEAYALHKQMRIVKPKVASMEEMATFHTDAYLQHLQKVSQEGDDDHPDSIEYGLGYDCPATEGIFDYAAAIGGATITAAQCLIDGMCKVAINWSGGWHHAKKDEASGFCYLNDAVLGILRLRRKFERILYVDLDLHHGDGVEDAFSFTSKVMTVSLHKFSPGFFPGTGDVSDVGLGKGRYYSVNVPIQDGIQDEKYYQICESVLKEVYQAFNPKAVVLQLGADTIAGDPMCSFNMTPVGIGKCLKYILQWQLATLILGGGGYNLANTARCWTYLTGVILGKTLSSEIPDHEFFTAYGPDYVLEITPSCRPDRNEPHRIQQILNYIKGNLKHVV

[5] = molecular target: T2, Protein deacetylase HDAC6 (Homo sapiens, UniProt Q9UBN7); assay: Inhibition of HDAC6 in human HeLa cell nuclear extract using Boc-Lys(Ac)-AMC or Boc-Lys(triflouroacetyl)-AMC as substrate incubated for 30 mins and measured by fluorescence assay; assay type: cell-free
T2 sequence (Q9UBN7 whole entry): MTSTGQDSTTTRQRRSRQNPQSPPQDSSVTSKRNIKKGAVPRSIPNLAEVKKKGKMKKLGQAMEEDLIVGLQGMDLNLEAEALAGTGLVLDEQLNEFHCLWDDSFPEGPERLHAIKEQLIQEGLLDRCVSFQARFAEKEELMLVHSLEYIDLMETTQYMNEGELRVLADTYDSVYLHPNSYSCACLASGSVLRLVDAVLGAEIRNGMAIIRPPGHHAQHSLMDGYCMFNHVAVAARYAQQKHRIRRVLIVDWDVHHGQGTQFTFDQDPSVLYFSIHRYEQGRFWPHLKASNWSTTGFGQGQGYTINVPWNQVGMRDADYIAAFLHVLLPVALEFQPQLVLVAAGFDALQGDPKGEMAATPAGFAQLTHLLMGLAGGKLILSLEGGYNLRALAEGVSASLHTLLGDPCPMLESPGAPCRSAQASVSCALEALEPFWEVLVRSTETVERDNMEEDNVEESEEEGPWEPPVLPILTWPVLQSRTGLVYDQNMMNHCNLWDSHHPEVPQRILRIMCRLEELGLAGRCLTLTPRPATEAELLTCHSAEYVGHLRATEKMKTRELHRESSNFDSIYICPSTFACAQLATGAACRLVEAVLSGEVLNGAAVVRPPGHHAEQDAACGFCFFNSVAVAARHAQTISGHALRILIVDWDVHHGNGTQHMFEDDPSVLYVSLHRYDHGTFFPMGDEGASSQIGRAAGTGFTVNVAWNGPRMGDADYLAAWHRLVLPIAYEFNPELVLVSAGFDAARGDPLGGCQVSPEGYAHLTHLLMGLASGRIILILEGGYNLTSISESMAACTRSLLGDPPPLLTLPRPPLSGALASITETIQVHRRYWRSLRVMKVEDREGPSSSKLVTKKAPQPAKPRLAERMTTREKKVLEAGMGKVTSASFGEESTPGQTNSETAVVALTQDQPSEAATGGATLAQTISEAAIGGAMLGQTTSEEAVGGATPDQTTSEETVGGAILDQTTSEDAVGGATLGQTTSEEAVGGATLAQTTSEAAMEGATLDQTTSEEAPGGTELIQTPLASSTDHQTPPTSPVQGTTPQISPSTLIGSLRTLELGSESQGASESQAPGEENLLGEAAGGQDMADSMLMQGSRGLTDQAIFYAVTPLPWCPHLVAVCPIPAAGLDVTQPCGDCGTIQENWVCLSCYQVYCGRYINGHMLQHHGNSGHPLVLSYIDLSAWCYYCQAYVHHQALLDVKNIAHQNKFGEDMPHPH

MC-38 = assay: Antiproliferative activity against mouse MC38 cells after 48 hrs by CCK-8 assay; assay type: functional, cell-based; settings: MC-38, 48 h
HepG2 = assay: Antiproliferative activity against human HepG2 cells after 48 hrs by CCK-8 assay; assay type: functional, cell-based; settings: HepG2, 48 h
Histone deacetylase 1 = Histone deacetylase 1 (Homo sapiens, UniProt Q13547); assay: Inhibition of HDAC1 in human HeLa cell nuclear extract using Boc-Lys(Ac)-AMC or Boc-Lys(triflouroacetyl)-AMC as substrate incubated for 30 mins and measured by fluorescence assay; assay type: cell-free
Chain of Histone deacetylase 1 (Q13547 whole entry): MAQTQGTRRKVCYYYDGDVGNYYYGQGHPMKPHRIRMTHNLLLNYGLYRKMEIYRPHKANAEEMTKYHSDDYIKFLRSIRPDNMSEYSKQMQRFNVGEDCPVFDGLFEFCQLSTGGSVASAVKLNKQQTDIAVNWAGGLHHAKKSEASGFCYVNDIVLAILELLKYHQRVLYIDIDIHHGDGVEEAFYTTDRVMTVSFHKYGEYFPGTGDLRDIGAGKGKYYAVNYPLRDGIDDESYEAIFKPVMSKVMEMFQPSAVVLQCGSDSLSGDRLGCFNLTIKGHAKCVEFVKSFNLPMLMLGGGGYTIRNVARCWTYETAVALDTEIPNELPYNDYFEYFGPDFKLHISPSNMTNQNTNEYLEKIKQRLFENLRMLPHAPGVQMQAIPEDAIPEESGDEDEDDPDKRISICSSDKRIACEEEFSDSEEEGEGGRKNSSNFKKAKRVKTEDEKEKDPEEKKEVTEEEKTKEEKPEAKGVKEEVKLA

HEL = assay: Antiproliferative activity against human HEL cells after 48 hrs by CCK-8 assay; assay type: functional, cell-based
MOLT-4 = assay: Antiproliferative activity against human MOLT-4 cells after 48 hrs by CCK-8 assay; assay type: functional, cell-based; settings: MOLT-4, 48 h
HCT-116 [6] = assay: Induction of apoptosis in human HCT-116 cells assessed as early apoptotic cells at 1.5 uM incubated for 48 hrs by PI and annexin V-FITC staining based flow cytometry (reference value: 3.4%); assay type: functional
HCT-116 [7] = assay: Induction of apoptosis in human HCT-116 cells assessed as late apoptotic cells at 1.5 uM incubated for 48 hrs by PI and annexin V-FITC staining based flow cytometry (reference value: 3.4%); assay type: functional

## O=C(CCCOc1cccc(-c2nnc(-c3ccccc3)s2)c1)NO
[1]
  IC50: > 1 µM

## COc1cc(-c2nnc(-c3cccc(OCCCCCC(=O)NO)c3)s2)cc(O)c1OC
[1]
  IC50: > 1 µM

## O=C(CCCCOc1ccc(-c2nnc(-c3ccccc3)s2)cc1)NO
[1]
  IC50: 0.362 µM

## CN1CCN(c2ccc3[nH]c(-c4ccc5[nH]c(-c6ccc(O)cc6)nc5c4)nc3c2)CC1
Calf thymus DNA [2]
  Activity: Active
Calf thymus DNA [3]
  Activity: Active

## COc1cc(-c2nnc(-c3cccc(OCCCCCCCC(=O)NO)c3)s2)cc(OC)c1OC
[1]
  IC50: 0.395 µM

## COc1cc(-c2nnc(-c3cccc(OCCCCC(=O)NO)c3)s2)cc(OC)c1OC
[1]
  IC50: > 1 µM

## O=C(CCCCCOc1cccc(-c2nnc(-c3ccccc3Cl)s2)c1)NO
[1]
  IC50: 0.339 µM

## O=C(COc1ccc(-c2nnc(-c3ccccc3Cl)s2)cc1)NO
[1]
  IC50: > 1 µM

## COc1cc(-c2nnc(-c3ccc(OCCCCC(=O)NO)cc3)s2)cc(OC)c1OC
[1]
  IC50: > 1 µM

## O=C(COc1ccc(-c2nnc(-c3ccccc3)s2)cc1)NO
[1]
  IC50: > 1 µM

## COc1cc(-c2nnc(-c3ccc(OCC(=O)NO)cc3)s2)cc(OC)c1OC
[1]
  IC50: > 1 µM

## O=C(CCCCCCOc1ccc(-c2nnc(-c3ccccc3)s2)cc1)NO
K562
  IC50: 16 µM
HeLa
  IC50: > 50 µM
HCT-116 [4]
  IC50: 20 µM
Histone deacetylase 8
  IC50: > 10 µM
[1]
  IC50: 0.199 µM
[5]
  IC50: 0.064 µM
MC-38
  IC50: 14 µM
HepG2
  IC50: > 50 µM
Histone deacetylase 1
  IC50: 0.082 µM
HEL
  IC50: > 10 µM
MOLT-4
  IC50: 3.1 µM

## O=C(CCCOc1ccc(-c2nnc(-c3ccccc3)s2)cc1)NO
[1]
  IC50: > 1 µM

## O=C(CCCCCCOc1ccc(-c2nnc(-c3ccccc3Cl)s2)cc1)NO
[1]
  IC50: > 1 µM

## O=C(COc1cccc(-c2nnc(-c3ccccc3)s2)c1)NO
[1]
  IC50: > 1 µM

## O=C(CCCOc1ccc(-c2nnc(-c3ccccc3Cl)s2)cc1)NO
[1]
  IC50: > 1 µM

## O=C(CCCCCOc1ccc(-c2nnc(-c3ccccc3)s2)cc1)NO
[1]
  IC50: > 1 µM

## COc1cc(-c2nnc(-c3ccc(OCCCCCCC(=O)NO)cc3)s2)cc(OC)c1OC
[1]
  IC50: 0.537 µM

## O=C(CCCCCCOc1cccc(-c2nnc(-c3ccccc3Cl)s2)c1)NO
K562
  IC50: 7.7 µM
HeLa
  IC50: 17 µM
HCT-116 [4]
  IC50: 10 µM
Histone deacetylase 8
  IC50: 1.52 µM
[1]
  IC50: 0.168 µM
[5]
  IC50: 0.03 µM
MC-38
  IC50: 16 µM
HepG2
  IC50: 21 µM
Histone deacetylase 1
  IC50: 0.168 µM
HEL
  IC50: 8.1 µM
MOLT-4
  IC50: 2.4 µM

## O=C(CCCCCCCOc1cccc(-c2nnc(-c3ccccc3)s2)c1)NO
[1]
  IC50: 0.538 µM

## COc1cc(-c2nnc(-c3ccc(OCCCCCC(=O)NO)cc3)s2)cc(OC)c1OC
[1]
  IC50: > 1 µM

## O=C(CCCCCCCOc1ccc(-c2nnc(-c3ccccc3)s2)cc1)NO
[1]
  IC50: > 1 µM

## COc1cc(-c2nnc(-c3cccc(OCC(=O)NO)c3)s2)cc(OC)c1OC
[1]
  IC50: > 1 µM

## O=C(CCCCCCCOc1cccc(-c2nnc(-c3ccccc3Cl)s2)c1)NO
[1]
  IC50: 0.461 µM

## COc1cc(-c2nnc(-c3ccc(OCCCCCCCC(=O)NO)cc3)s2)cc(OC)c1OC
[1]
  IC50: > 1 µM

## O=C(CCCCCCOc1cccc(-c2nnc(-c3ccccc3)s2)c1)NO
K562
  IC50: 3.2 µM
HeLa
  IC50: 4.9 µM
HCT-116 [4]
  IC50: 2.9 µM
Histone deacetylase 8
  IC50: 2.39 µM
[1]
  IC50: 0.057 µM
[5]
  IC50: 0.185 µM
MC-38
  IC50: 2.4 µM
HepG2
  IC50: 2.2 µM
Histone deacetylase 1
  IC50: 0.019 µM
HEL
  IC50: 2.6 µM
MOLT-4
  IC50: 0.71 µM

## O=C(CCCCCOc1ccc(-c2nnc(-c3ccccc3Cl)s2)cc1)NO
[1]
  IC50: > 1 µM

## O=C(COc1cccc(-c2nnc(-c3ccccc3Cl)s2)c1)NO
[1]
  IC50: > 1 µM

## O=C(CCCCOc1ccc(-c2nnc(-c3ccccc3Cl)s2)cc1)NO
[1]
  IC50: > 1 µM

## COc1cc(-c2nnc(-c3ccc(OCCCC(=O)NO)cc3)s2)cc(OC)c1OC
[1]
  IC50: > 1 µM

## O=C(CCCCCCC(=O)Nc1ccccc1)NO [VORINOSTAT]
HCT-116 [6]
  Activity: 5.05%
HCT-116 [7]
  Activity: 5.05%

## O=C(CCCOc1cccc(-c2nnc(-c3ccccc3Cl)s2)c1)NO
[1]
  IC50: > 1 µM

## COc1cc(-c2nnc(-c3cccc(OCCCC(=O)NO)c3)s2)cc(OC)c1OC
[1]
  IC50: > 1 µM

## COc1cc(-c2nnc(-c3cccc(OCCCCCCC(=O)NO)c3)s2)cc(OC)c1OC
[1]
  IC50: 0.366 µM

## O=C(CCCCCCCOc1ccc(-c2nnc(-c3ccccc3Cl)s2)cc1)NO
[1]
  IC50: > 1 µM

## O=C(CCCCOc1cccc(-c2nnc(-c3ccccc3)s2)c1)NO
K562
  IC50: 2.1 µM
HeLa
  IC50: 1.9 µM
HCT-116 [4]
  IC50: 2 µM
Histone deacetylase 8
  IC50: 3.11 µM
[1]
  IC50: 0.118 µM
[5]
  IC50: 0.032 µM
MC-38
  IC50: 7.1 µM
HepG2
  IC50: 11 µM
Histone deacetylase 1
  IC50: 0.179 µM
HEL
  IC50: 0.57 µM
MOLT-4
  IC50: 0.49 µM

## O=C(CCCCOc1cccc(-c2nnc(-c3ccccc3Cl)s2)c1)NO
[1]
  IC50: 0.656 µM

From ChEMBL document CHEMBL5108012, “Discovery of 2,5-diphenyl-1,3,4-thiadiazole derivatives as HDAC inhibitors with DNA binding affinity” (Eur J Med Chem, 2022)
